Test results published in ChEMBL document CHEMBL4483862, “Open-source discovery of chemical leads for next-generation chemoprotective antimalarials” (2018).

System: Plasmodium berghei
Experiment: Luciferase/luciferin-expressing antifolate-resistant parasites were used to infect a culture of HepG2 cells that were pre-incubated with compounds. Infected hepatocytes emit light due to the luciferase reaction. Assay results are presented as the percent inhibition of light emission compared to control. […]
Assay type: functional
Details: sporozoite; for IC90: read-out: LUCIFERASE INFECTION ASSAY - IC90

| SMILES | IC90 [µM] | further results |
| --- | --- | --- |
| CN(C)c1ccc(/C=C/c2cccc[n+]2C)cc1 | > 9.01 | IC50 (HEPG2TOX_HILL_SLOPE 3.15, HEPG2TOX_R_SQUARED 0.984, PBLUC_HILL_SLOPE 12.7, PBLUC_R_SQUARED 0.413, read-out: LUCIFERASE INFECTION ASSAY - IC50): 7.92 µM |
| CC1=CC(C)(C)N2C(=O)C3(NCCc4c3[nH]c3ccccc43)c3cc(C)cc1c32 (configuration not stated) | 3.21 | IC50 (HEPG2TOX_HILL_SLOPE 3.19, HEPG2TOX_R_SQUARED 0.903, PBLUC_HILL_SLOPE 11.5, PBLUC_R_SQUARED 0.604, read-out: LUCIFERASE INFECTION ASSAY - IC50): 2.66 µM |
| COc1ccc(-[n+]2c(-c3ccc(Br)cc3)cn3c2CCc2ccccc2-3)cc1 | 3.77 | IC50 (HEPG2TOX_HILL_SLOPE 3.09, HEPG2TOX_R_SQUARED 0.93, PBLUC_HILL_SLOPE 14.3, PBLUC_R_SQUARED 0.689, read-out: LUCIFERASE INFECTION ASSAY - IC50): 3.23 µM |
| COc1ccc(C(C)(O)c2nc(-c3ccccc3C)cs2)cc1 (configuration not stated) | 3.04 | IC50 (HEPG2TOX_HILL_SLOPE 3.12, HEPG2TOX_R_SQUARED 0.895, PBLUC_HILL_SLOPE 4.56, PBLUC_R_SQUARED 0.531, read-out: LUCIFERASE INFECTION ASSAY - IC50): 1.88 µM |
| CC1N(C)c2ccc(/C=C/c3nc4ccccc4s3)cc2C1(C)C (configuration not stated) | 4.73 | IC50 (HEPG2TOX_HILL_SLOPE 3.14, HEPG2TOX_R_SQUARED 0.947, PBLUC_HILL_SLOPE 1.36, 1.57, PBLUC_R_SQUARED 0.638, 0.693, read-out: LUCIFERASE INFECTION ASSAY - IC50): 1.03 µM |
| COc1ccc(NC(=O)c2ccn[nH]2)cc1NC(=O)c1ccc(Cl)cc1F | 4.87 | IC50 (HEPG2TOX_HILL_SLOPE 3.17, HEPG2TOX_R_SQUARED 0.943, PBLUC_HILL_SLOPE 8.03, PBLUC_R_SQUARED 0.294, read-out: LUCIFERASE INFECTION ASSAY - IC50): 3.7 µM |
| CS(=O)(=O)Nc1ccc(-c2csc(Nc3ccccn3)n2)cc1 | 9.68 | IC50 (HEPG2TOX_HILL_SLOPE 3.13, HEPG2TOX_R_SQUARED 0.99, PBLUC_HILL_SLOPE 12.3, PBLUC_R_SQUARED 0.0453, read-out: LUCIFERASE INFECTION ASSAY - IC50): 8.1 µM |
| CC(=O)Nc1ccc2c(Cn3ncc(Cl)c(Cl)c3=O)cc(=O)oc2c1 | 9.76 | IC50 (HEPG2TOX_HILL_SLOPE 3.1, HEPG2TOX_R_SQUARED 0.966, PBLUC_HILL_SLOPE 14.3, 0.748, PBLUC_R_SQUARED 0.481, 0.667, read-out: LUCIFERASE INFECTION ASSAY - IC50): 5.45 µM |
| O=C(Nc1ncc(Cc2ccccc2)s1)c1ccc2nc[nH]c2c1 | > 10 | IC50 (HEPG2TOX_HILL_SLOPE 3.11, HEPG2TOX_R_SQUARED 0.961, PBLUC_HILL_SLOPE 3.02, PBLUC_R_SQUARED 0.464, read-out: LUCIFERASE INFECTION ASSAY - IC50): 5.71 µM |
| CN1C(=O)N(Cc2ccc3ccccc3c2)C(=O)C12CCN(Cc1ccc(C#CC(C)(C)O)cc1)CC2 | 2.84 | IC50 (HEPG2TOX_HILL_SLOPE 3.16, HEPG2TOX_R_SQUARED 0.979, PBLUC_HILL_SLOPE 9.91, PBLUC_R_SQUARED 0.437, read-out: LUCIFERASE INFECTION ASSAY - IC50): 2.27 µM |
| CNc1nc2cnc(Nc3ccc(C(F)(F)F)cc3)cc2n1Cc1ccccc1 | > 10 | IC50 (HEPG2TOX_HILL_SLOPE 3.2, HEPG2TOX_R_SQUARED 0.033, read-out: LUCIFERASE INFECTION ASSAY - IC50): > 10 µM |
| FC(F)(F)c1nc2ccccc2c2nnc(-c3ccc(Cl)cc3)n12 | 3.88 | IC50 (HEPG2TOX_HILL_SLOPE 3.1, HEPG2TOX_R_SQUARED 0.959, PBLUC_HILL_SLOPE 22, PBLUC_R_SQUARED 0.45, read-out: LUCIFERASE INFECTION ASSAY - IC50): 3.51 µM |
| c1ccc(-c2ccc3ncc(-c4cccnc4)n3n2)cc1 | 3.68 | IC50 (HEPG2TOX_HILL_SLOPE 3.18, HEPG2TOX_R_SQUARED 0.875, PBLUC_HILL_SLOPE 8.44, PBLUC_R_SQUARED 0.581, read-out: LUCIFERASE INFECTION ASSAY - IC50): 2.84 µM |
| COc1ccc(OC)c(NC(=O)c2ccc(NC3=C(Cl)C(=O)N(C4CCCCC4)C3=O)cc2)c1 | 8.05 | IC50 (HEPG2TOX_HILL_SLOPE 3.19, HEPG2TOX_R_SQUARED 0.935, PBLUC_HILL_SLOPE 2.39, PBLUC_R_SQUARED 0.579, read-out: LUCIFERASE INFECTION ASSAY - IC50): 3.21 µM |
| COc1ccc(-c2csc(N/C=C3/C(=O)NC(=O)c4ccccc43)n2)cc1OC | 8.15 | IC50 (HEPG2TOX_HILL_SLOPE 3.11, HEPG2TOX_R_SQUARED 0.952, PBLUC_HILL_SLOPE 3, PBLUC_R_SQUARED 0.801, read-out: LUCIFERASE INFECTION ASSAY - IC50): 3.92 µM |
| CC(c1cccc(NC(=O)c2ccccc2)c1)N(C)c1ccc([N+](=O)[O-])cn1 (configuration not stated) | 1.3 | IC50 (HEPG2TOX_HILL_SLOPE 3.15, HEPG2TOX_R_SQUARED 0.897, PBLUC_HILL_SLOPE 11.5, PBLUC_R_SQUARED 0.814, read-out: LUCIFERASE INFECTION ASSAY - IC50): 1.08 µM |

| SMILES | IC90 [µM] | further results |
| --- | --- | --- |
| Cc1cc2occ(CC(=O)Nc3sccc3C(N)=O)c2cc1C(C)C | 4.1 | IC50 (HEPG2TOX_HILL_SLOPE 3.18, 2.30, HEPG2TOX_R_SQUARED 0.297, 0.732, PBLUC_HILL_SLOPE 15.1, PBLUC_R_SQUARED 0.252, read-out: LUCIFERASE INFECTION ASSAY - IC50): 3.55 µM |
| CC1N(C)c2ccc(/C=C/c3sc4ccccc4[n+]3C)cc2C1(C)C (configuration not stated) | 4.5 | IC50 (HEPG2TOX_HILL_SLOPE 3.18, HEPG2TOX_R_SQUARED 0.945, PBLUC_HILL_SLOPE 1.61, PBLUC_R_SQUARED 0.672, read-out: LUCIFERASE INFECTION ASSAY - IC50): 1.15 µM |
| CNc1nc2cnc(Nc3ccc(OC(F)(F)F)cc3)cc2n1Cc1ccccc1 | 5.21 | IC50 (HEPG2TOX_HILL_SLOPE 3.1, HEPG2TOX_R_SQUARED 0.978, PBLUC_HILL_SLOPE 7.5, PBLUC_R_SQUARED 0.303, read-out: LUCIFERASE INFECTION ASSAY - IC50): 3.88 µM |
| COc1cc(OC)cc(-c2cc3c(Nc4ccc(OC)c(OC)c4)nccc3[nH]2)c1 | 6.83 | IC50 (HEPG2TOX_HILL_SLOPE 3.11, HEPG2TOX_R_SQUARED 0.652, PBLUC_HILL_SLOPE 1.69, PBLUC_R_SQUARED 0.756, read-out: LUCIFERASE INFECTION ASSAY - IC50): 1.86 µM |
| CC(C)c1ccccc1N(C(=O)c1cc2ccccc2o1)c1nc2ccccc2s1 | > 10 | IC50 (HEPG2TOX_HILL_SLOPE 3.13, HEPG2TOX_R_SQUARED 0.898, read-out: LUCIFERASE INFECTION ASSAY - IC50): > 10 µM |
| CCOc1cccc2c(C)nc(Nc3nc(=O)c4ccccc4[nH]3)nc12 | 7.27 | IC50 (HEPG2TOX_HILL_SLOPE 3.19, HEPG2TOX_R_SQUARED 0.9, PBLUC_HILL_SLOPE 4.13, PBLUC_R_SQUARED 0.554, read-out: LUCIFERASE INFECTION ASSAY - IC50): 4.27 µM |
| c1ccc2cc(-c3cnc4ccc(NCc5ccncc5)nn34)ccc2c1 | 4.49 | IC50 (HEPG2TOX_HILL_SLOPE 3.1, HEPG2TOX_R_SQUARED 0.978, PBLUC_HILL_SLOPE 7.42, PBLUC_R_SQUARED 0.525, read-out: LUCIFERASE INFECTION ASSAY - IC50): 3.34 µM |
| O=C(Nc1ccc(SC(F)(F)F)cc1)Nc1ccc(Sc2ccc(Cl)cc2)nc1 | 5.24 | IC50 (HEPG2TOX_HILL_SLOPE 3.12, HEPG2TOX_R_SQUARED 0.943, PBLUC_HILL_SLOPE 7.91, PBLUC_R_SQUARED 0.378, read-out: LUCIFERASE INFECTION ASSAY - IC50): 3.97 µM |
| CCOC(=O)c1c(C)[nH]c(C(=O)COC(=O)c2[nH]nc3ccccc23)c1C | > 10 | IC50 (HEPG2TOX_HILL_SLOPE 3.07, HEPG2TOX_R_SQUARED 0.979, PBLUC_HILL_SLOPE 5.58, PBLUC_R_SQUARED 0.622, read-out: LUCIFERASE INFECTION ASSAY - IC50): 8.71 µM |
| COc1cc(-c2nc3ccc(NC(=O)Nc4ccc(C)cc4)cn3n2)cc(OC)c1OC | 2.87 | IC50 (HEPG2TOX_HILL_SLOPE 3.16, HEPG2TOX_R_SQUARED 0.688, PBLUC_HILL_SLOPE 3.03, PBLUC_R_SQUARED 0.446, read-out: LUCIFERASE INFECTION ASSAY - IC50): 1.39 µM |
| CC(C(=O)Nc1ccc(S(N)(=O)=O)cc1)N1CCC(CCc2ccccc2)CC1 (configuration not stated) | > 10 | IC50 (HEPG2TOX_HILL_SLOPE 3.11, HEPG2TOX_R_SQUARED 0.733, PBLUC_HILL_SLOPE 2.39, PBLUC_R_SQUARED 0.628, read-out: LUCIFERASE INFECTION ASSAY - IC50): 5.36 µM |
| COc1cccc(-c2cnn3ccc(Nc4ccc(NS(=O)(=O)c5ccc(C)cc5)cc4)nc23)c1 | > 6.8 | IC50 (HEPG2TOX_HILL_SLOPE 3.16, HEPG2TOX_R_SQUARED 0.917, PBLUC_HILL_SLOPE 15.1, PBLUC_R_SQUARED 0.0764, read-out: LUCIFERASE INFECTION ASSAY - IC50): 6.21 µM |
| c1csc(-c2cnc3ccc(-c4cccc5ncccc45)nn23)c1 | 5.26 | IC50 (HEPG2TOX_HILL_SLOPE 3.19, HEPG2TOX_R_SQUARED 0.792, PBLUC_HILL_SLOPE 2.95, PBLUC_R_SQUARED 0.78, read-out: LUCIFERASE INFECTION ASSAY - IC50): 2.49 µM |
| COc1cc(OC)cc(-c2cn3c(-c4ccc5c(ccn5C)c4)cnc3cn2)c1 | 0.163 | IC50 (HEPG2TOX_HILL_SLOPE 3.11, HEPG2TOX_R_SQUARED 0.612, PBLUC_HILL_SLOPE 2.08, PBLUC_R_SQUARED 0.748, read-out: LUCIFERASE INFECTION ASSAY - IC50): 0.0568 µM |
| CCN1C(=O)N(Cc2cccc(OC)c2)C(=O)C12CCN(Cc1cc3ccccc3s1)CC2 | > 7.12 | IC50 (HEPG2TOX_HILL_SLOPE 3.09, HEPG2TOX_R_SQUARED 0.881, PBLUC_HILL_SLOPE 9.24, PBLUC_R_SQUARED 0.267, read-out: LUCIFERASE INFECTION ASSAY - IC50): 6.06 µM |
